“Also recorded” adds a separate entry of the source. Where a name gives a salt, the structure may show the parent alone.
What was measured:
[1] = tested on: human ovarian tumor cells; experiment: Photodynamic growth inhibition of human ovarian cancer cells in vitro (soft agar); format: cell-based
Experimental: 1,3,5,7,8-pentamethylpyrromethene-boron difluoride-2,6-disodium disulfonate salt (PMPDS-BF2) and bimane diphosphonate were prepared according to previously described methods.
Human ovarian cells from fifteen individual patients were evaluated. All cancers were epithelial originating ovarian adenocarcinomas. Each cancer had been passed through at least one culture in RPMI-1640 (10% FBA) medium prior to use in the present study. In each case cells were harvested and washed in RPMI-1640 medium and resuspended in concentrations of 2.6×10^6 cells/ml at 5° C. The cells (2.6×10^6 cells/ml) were then incubated in a RPMI-1640 growth medium (containing 10% fetal bovine […], penicillin 100 U/ml and streptomycin 100 μg/ml) pH, 7.4 with graded doses of PMPDS-BF2 complex for 30 minutes at 37° C. in a 5% CO2 /air incubator with gentle shaking. The three concentrations of PMPDS-BF2 evaluated in this study were 0.004 μg, 0.04 μg, and 0.4 μg/ml of medium. The cell suspension was then washed with cold RPMI-1640 medium to remove extracellular PMPDS-BF2 complex, and then the cells were resuspended in fresh RPMI growth medium. Fifteen (15) ml portions of the cell suspensions (2.6×10^6 cells/ml) were irradiated in glass tubes at 37° C. in room air over a 10-20 minute period using a General Electric sun lamp. Controls were cells exposed to PMPDS-BF2 with no light exposure, cells with light exposure alone and cells with neither exposure to light nor chemicals.
Under identical conditions as above, bimane diphosphonate was evaluated for cytotoxic activities in the presence and absence of light. After the above incubations with PMPDS-BF2 or bimanes±light as controls, melted Bacto-agar (Difco Laboratories, Inc., Detroit, Mich.) was added to the cell suspensions to a final concentration of 0.3% agar. The mixtures were plated in 35 mm plastic tissue culture dishes on a feeder layer containing an enriched McCoy's 5A medium and 0.5% agar with the addition of 2-mercaptoethanol (5 mM) and DEAE-dextran. The seeding density for the cells in this study was kept between 1-5×10^4 cells per dish and the plates incubated at 37° C. in a CO2 incubator. Incubation was continued for another 2-3 weeks and the plates examined under an inverted phase contrast microscope and cells counted. Since these cells grow as tight aggregates in soft-agar, it was impossible to determine the number of cells in each growth. Instead, an ocular micrometer was used to count colonies 30 μm or larger in size. Plating efficiency, defined as the number of colonies formed per 100 viable cells plated, was compared between groups.

[2] = P-BF2 dyes dispersed in acrylic co-polymer (solid-state laser)
From the text: Any laser dye of the present invention may be substituted for the dye in any of the examples of that incorporated patent. The matrix generally includes solid polymeric host laser rods prepared using bulk polymerization of acrylic acid ester comonomers.

[3] = Laser characteristics of pyrromethene-BF2 complexes under flashlamp excitation (Table IV); settings: DMA/MeOH
[4] = Solubility/fluorescence in various solvents (Tables I, II); format: physicochemical
Experimental: In addition, tests were conducted on the product in order to determine its solubility/fluorescence in various solvents. One property of the compositions described herein involves a variable degree of solubility/fluorescence relative to the solvents with which they are combined. Data showing a variety of different solvents combined with the product of Example I is presented below in Table I:
As in Example I, tests were conducted on the product in Example II in order to determine its fluorescence in various solvents. Data showing a variety of different solvents combined with the product of Example II is presented below in Table II: […]

[5] = Triplet-triplet (T--T) absorption; format: physicochemical; settings: fluorescent spectral area
Experimental: The T--T absorption spectrum was recorded at 77K, employing a 1×10^-4 molar solution of 2-methyltetrahydrofuran as solvent.

[6] = tested on: metastatic breast cancer spread to the chest wall; experiment: Topical photodynamic treatment of metastatic breast cancer of the chest wall, case history; format: in vivo, patient
From the text: The following case history also illustrates topical application of one of the compounds of the present invention in a person with a 12-year history of metastatic breast cancer spread to the chest wall. The patient had been treated with combinations of numerous chemotherapeutic agents and radiation therapy. Their cancer continued to progress and they received nine weekly treatments with a topical 0.3% solution of 1,3,5,7,8-pentamethylpyrromethene boron difluoride-2,6-disulfonate (PMPDS-BF2) in dimethylsulfoxide applied to the chest wall lesions followed by exposure to a General Electric sunlamp for ten minutes. The patient had initially a greater than 50% shrinkage of their tumor, which lasted over nine weeks.

[7] = Photostability under irradiation with 250 watt sun lamp; format: physicochemical; settings: sun lamp, in M-1cm-1 (unit assumed)
Experimental: In addition, experiments were conducted in order to determine the photostability of the product of Example I. A solution was prepared by mixing 0.1 g of the product with 50 ml of dichloromethane solvent. The solution was placed in a 100 ml round bottom flask and irradiated with light from a sun lamp (250 watts at a distance of approximately 8 inches from the flask). […] However, another solution was made by combining 0.1 g of product in 250 ml of CH3 OH and 10 ml of CH2 Cl2. Addition of the CH2 Cl2 was undertaken to obtain complete dissolution. The solution was placed in a […] and irradiated as described above. […] Thus, the use of different solvents will cause a variation in both the character and duration of fluorescence.
In addition, a further test was conducted in order to determine the photostability of the product. Specifically, 2.0 mg of the product in a 100 ml round bottom flask was dissolved in 50 ml of H2 O. The solution was then irradiated by light from a 250 watt sun lamp placed approximately 8 inches from the flask. UV spectral data was recorded periodically as shown below in Table III.

[8] = topical 0.3% solution in dimethylsulfoxide, sunlamp ten minutes

- solubility in the polymer matrix [2]: particularly soluble
- Life [3]: very long
- Solubility ([4]; (CF3)2 CHOH): Insoluble
- Solubility ([4]; CH2 Cl2): Insoluble
- Solubility ([4]; CH3 CO2 C2 H5): Insoluble
- Solubility ([4]; H2 O): Soluble
- Solubility ([4]; O(CH2 CH2)2 O): Insoluble
- T--T absorption [5]: barely detectable
- T--T absorption ε.tau. [5]: ~ 3×10^-3
- ε492 (H2O) ([7]; 2.0 mg in 50 ml H2O, 0 hours): 76,995.38
- ε492 (H2O) ([7]; H2O, 0.5 hours): 76,755.22
- ε492 (H2O) ([7]; H2O, 1.0 hours): 75,556.52
- ε492 (H2O) ([7]; H2O, 1.5 hours): 76,755.52
- ε492 (H2O) ([7]; H2O, 2.5 hours): 75,316.35
- ε492 (H2O) ([7]; H2O, 3.5 hours): 73,757.26
- ε492 (H2O) ([7]; H2O, 6.0 hours): 69,799.55
- ε492 (H2O) ([7]; H2O, 20.0 hours): 52,049.62
- ε492 (H2O) ([7]; H2O, 21.5 hours): 51,569.90
- ε492 (H2O) ([7]; H2O, 23.5 hours): 46,173.05
- ε492 (H2O) ([7]; H2O, 25.5 hours): 45,573.40
- ε492 (H2O) ([7]; H2O, 28.0 hours): 41,016.06
- ε492 (H2O) ([7]; H2O, 30.5 hours): 37,178.46
- ε492 (H2O) ([7]; H2O, 44.0 hours): 20,388.19
- ε492 (H2O) ([7]; H2O, 50.0 hours): 13,192.355
- ε492 (H2O) ([7]; H2O, 52.5 hours): 599.653
SMILES: CC1=C(S(=O)(=O)O)C(C)=[N+]2C1=C(C)c1c(C)c(S(=O)(=O)O)c(C)n1[B-]2(F)F [PMPDS-BF2, Disodium salt of 4,4-difluoro-1,3,5,7,8-pentamethyl-4-bora-3a,4a-diaza-s-indacene-2,6-disulfonic acid monohydrate]
- inhibition in cell growth ([1]; 0.004 μg/ml plus light): 40-70%
- cell morphology ([1]; 0.004 μg/ml plus light, within 48 hours): pyknotic changes with nuclear fragmentation
- colonization / morphology of cells ([1]; 0.04 μg/ml plus light, three days post exposure): unable to colonize, demonstrated pyknotic changes in the nucleus and cytoplasmic discoloration
- inhibition of cell growth ([1]; 0.4 μg/ml plus light): 100%
- cytotoxic response without light ([1]; absence of light exposure, monohydrate): did not demonstrate significant cytotoxic responses; also recorded: did not produce cytotoxicities
- shrinkage of tumor ([6]; topical 0.3% solution in dimethylsulfoxide, nine weekly treatments, sunlamp ten minutes): greater than 50%
- duration of tumor shrinkage [6, 8]: over nine
- toxic reactions [6, 8]: no toxic reactions
- course after nine week shrinkage ([6]; topical 0.3% solution, after nine weeks): the metastatic lesions again began to grow
